# Source: patent publication US9611301B2, “GB virus C (hepatitis G virus) E2 glycoprotein as an immunomodulatory agent” (priority 2012, dated 2017)
# Where no end group is shown, it is not given here.
# Columns and labels:
# Healthy donors PBMCs = assay: IL-2 production by PBMCs incubated with synthetic TAT peptides, anti-CD3/CD28 stimulation; assay type: cell-based, human; settings: 20 μg peptide over night, anti-CD3/CD28 500 ng/ml, 24 hrs
# Excerpt: pLAT (Y191) was quantified using PathScan ELISA kit (Cell Signaling Technology) and IL-2 cytokine released into cell culture supernatant was quantified using human IL-2 quantikine ELISA kit (R&D Systems) according to manufacturer's instructions.
# (§1) FITC labelled synthetic peptides with an N-terminal HIV TAT protein transduction domain (TAT) alone (GGGGGRKKRRQRRR; SEQ ID NO: 13), or with the GBV-C E2 aa 86-101 ([…]; SEQ ID NO: 14; Y87), or the Y87H mutation ([…]; SEQ ID NO: 15) were obtained from Ana Spec, Inc. Peptides with the TAT domain and GBV-C E2 aa 276-292 (GGAGLTGGRYEPLVRRC; SEQ ID NO: 16), or the same amino acids in a scrambled order (GCRCARGVLLTPGEGYF; SEQ ID NO: 17) as previously described^28. Peptides were dissolved in RPMI with 10% DMSO. The TAT domain enhances cellular uptake of the peptide. Healthy donors PBMCs (1×10^6 cells/ml) were incubated with 20 μg peptide at 37° C. over night before stimulation with 500 ng/ml anti-CD3/CD28. IL-2 release and cellular receptor expression was analyzed 24 hrs later.
# [1] = test system: primary human CD4+ and CD8+ T cells; assay: CD69 and CD25 surface expression on CD4+ and CD8+ T cells incubated with synthetic TAT peptides; assay type: cell-based; settings: compared to mutant or control peptide
# Experimental: Cellular receptor expression was measured using the following antibodies per manufacturer's recommendation: CD69 (PE), CD25 (APC), CD45 (PE) (BD Biosciences). Cells were incubated on ice for 1 hour, washed 3 times with PBS and fixed in 2% paraformaldehyde (Polysciences). Data was acquired on BD LSR II flow cytometer using single stained CompBeads (BD Biosciences) for compensation. At least 10,000 total events were collected in each experiment and the FlowJo program (Tree Star Inc.) was used for data analysis. All flow cytometry experiments were repeated at least three times with consistent results.
# as §1
# Lck = target: T1, Lck (Homo sapiens, UniProt P06239); assay: Lck mediated phosphorylation of TAT-peptides (Lck kinase enzyme system); assay type: biochemical; settings: in vitro
# T1 construct: purchased Promega
# Experimental: CD45 activity was measured using CD45 tyrosine phosphatase assay kit (Enzo Life Sciences) following the manufacturer's instructions. Purified recombinant GBV-C E2 protein expressed in CHO cells was described previouslyl^2. Enzymatic activity was evaluated with or without GBV-C E2 protein (10 μg) or human IgG control (10 μg; Sigma) at room temperature. Following 1 hour incubation, the reaction was terminated and absorbance determined by a Microplate reader (Model 680, Bio-Rad) at OD620nm. Phosphorylation of GBV-C E2 protein by Lck was measured by incubating recombinant E2 protein (40 μg) with or without human Lck ([…]; R&D Systems) as recommended by the manufacturer. Samples were subjected to immunoblot analysis as described above. Phosphorylation was determined by immunoblot analysis with phosphotyrosine antibodies (Invitrogen) and GBV-C E2 protein was identified using an anti-E2 monoclonal antibody. Lck mediated phosphorylation of GBV-C E2 derived TAT-peptides were performed using Lck kinase enzyme system (Promega) as recommended by the manufacturer.
# T1 sequence (P06239 whole entry, species assumed): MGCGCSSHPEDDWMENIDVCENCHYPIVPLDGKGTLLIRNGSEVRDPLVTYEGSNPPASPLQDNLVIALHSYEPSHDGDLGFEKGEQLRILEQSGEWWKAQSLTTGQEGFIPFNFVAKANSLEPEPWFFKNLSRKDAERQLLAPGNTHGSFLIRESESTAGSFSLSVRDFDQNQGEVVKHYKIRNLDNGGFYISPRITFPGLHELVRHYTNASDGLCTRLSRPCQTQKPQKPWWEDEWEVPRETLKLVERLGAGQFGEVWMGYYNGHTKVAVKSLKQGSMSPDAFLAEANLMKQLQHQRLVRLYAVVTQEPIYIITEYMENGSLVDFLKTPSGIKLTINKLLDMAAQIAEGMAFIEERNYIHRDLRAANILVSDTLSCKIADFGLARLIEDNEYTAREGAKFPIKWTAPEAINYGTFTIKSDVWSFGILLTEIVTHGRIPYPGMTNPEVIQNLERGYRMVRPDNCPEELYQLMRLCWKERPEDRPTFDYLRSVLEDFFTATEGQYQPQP
Sequence,IL-2 production (Healthy donors PBMCs),surface expression of CD25 [1],surface expression of CD69 [1],Lck mediated phosphorylation of peptide (Lck substrate) (Lck)
"GGGGGRKKRRQRRR (also: FITC label, site not given here) [TAT control, HIV TAT protein transduction domain alone; negative control, reference compound]",not,,,
"GGGGGRKKRRQRRRVHGSVSVTCVWGS (also: FITC label, site not given here) [TAT-Y87H, TAT peptide with the Y87H mutation]",not,,,
"GGGGGRKKRRQRRRVYGSVSVTCVWGS (also: FITC label, site not given here) [TAT-Y87, synthetic peptide, N-terminal HIV TAT protein transduction domain with GBV-C E2 aa 86-101]",inhibited,significantly reduced,significantly reduced,phosphorylated by Lck in a dose-dependent manner
GGAGLTGGRYEPLVRRC [TAT-276-292],,,,served as a Lck substrate in vitro
